Measured values: patent US20170119033A1, “METHOD OF IMPROVING STABILITY OF SWEET ENHANCER AND COMPOSITION CONTAINING STABILIZED SWEET ENHANCER” (Senomyx, Inc., priority 2016, published 2017)
Entries after “also recorded” stand apart in the source; their conditions may differ.

Assay: Photostability test in Q-Sun Xenon Test Chamber (accelerated photodegradation), LC/MSD quantitation
Assay type: physicochemical
Conditions: for percent Compound 1 remaining: 10 ppm; for effect of sorbate on photostability: 250 ppm potassium sorbate versus no photostabilizer; for effect of sorbate on photostability / rate of degradation, trend with pH: 10 ppm Compound 1 or 5 ppm Compound 2; for rate of degradation, trend with pH: no photostabilizer, pH 2.8, 4.0, 5.0, 7.1; for percent Compound 2 remaining: 5 ppm
Description: Aqueous buffer solution at pH 7.1 contains 50 mM potassium dihydogen phosphate and ˜32 mM sodium hydroxide (solutions of 1.0 M hydrochloric acid and 1.0 M sodium hydroxide are used to adjust pH). Aqueous buffer solution at pH 4.0 contains 50 mM citric acid monosodium salt and ˜7.4 mM sodium hydroxide (solutions of 1.0 M hydrochloric acid and 1.0 M sodium hydroxide are used to adjust pH). Aqueous buffer solution at pH 2.8 contains 50 mM citric acid and ˜16 mM sodium hydroxide (solutions of 1.0 M hydrochloric acid and 1.0 M sodium hydroxide are used to adjust pH). Aqueous buffer solution at pH 5.0 contains 50 mM acetic acid and ˜32 mM sodium hydroxide (solutions of 1.0 M hydrochloric acid and 1.0 M sodium hydroxide are used to adjust pH). All the buffers also contained 30 ppm ethylenediaminetetraacetic acid (EDTA).
The stock solutions of the test compounds at 10 mM for compound I and at 2000 ppm for compound II are made by dissolving the compounds in ethanol and water with 0.2% sodium bicarbonate, respectively. The solutions of the stabilizers are made by dissolving the materials in the aqueous buffers. The stock solutions are then diluted to 5 or 10 ppm with the stabilizer solutions to prepare the test solution and 10-mL aliquots of the solutions are transferred to 20-mL clear glass vial for testing.
Accelerated photodegradation was studied using a Q-Sun Xenon Test Chamber (Q-Lab Model No. Xe-1-SC) at an irradiance setting of 350 mW/m^2 at 340 nm and temperature of 25 degrees Celsius. To put this in perspective, 24 hours of constant Q-Sun irradiation at these settings is approximately equivalent to 12.4 days of direct sunlight in the southwestern United States. At 0, 1, 2, 4, 6 and 24 hours from the beginning of the radiation, a 0.4-mL aliquot from each vial is pippeted out to a 1-mL glass insert for analysis.
The samples are analyzed using an Agilent 1290 LC/MSD equipped with a diode-array detector (DAD). The peak areas from the MSD chromatograms are used for quantitation, and the photostability is shown by plotting the percentages of the test compound which remains intact at all time points. The peak areas from the DAD chromatograms are used for quantitation for stabilizers with concentration at […] or higher. The instrument conditions are listed below. • Column: Water Acquity HSS T3 C18 1.8 μm, 2.1×30 mm • Column Temperature: 30° C. • Auto-sampler Temperature: Room temperature • Mobile Phase A: 0.1% formic acid in water • Mobile Phase B: 0.1% formic acid in acetonitrile • Gradient: 0-1 min, linear gradient 5-50% B; 1.0-1.2 min, linear gradient 50-100% B; 1.2-2.0 min, 100% B; flow rate is 1.2 mL/min, and Post time is 0.5 min. • Injection volume: 10 uL • MSD ion source: APCI • MSD Signal settings: Positive, selected ion monitoring (SIM) at the mass of the expected molecular ions. • UV detection wavelength: 230 nm. • MSD detection start time: 0.65 min
(§1) A Q-Sun Xenon Test Chamber (Q-Lab Model No. Xe-1-SC), which reproduces the entire spectrum of natural sunlight, was used to study the photostability of Compound 1 in various mediums (with or without photostabilizers). The equivalent sunlight exposure time for 24 hours in the Q-Sun at a constant temperature of 25° C. and irradiance of 450 mW/m^2 @ 340 nm is estimated to be equivalent to approximately 15.9 days of direct sunlight in the Southwestern United States.
as §1, with “Compound 2” for “Compound 1”

[1] = 250 ppm potassium sorbate, pH 4.0, after 4 hours exposure
[2] = absence of photostabilizer, pH 7.1, after 4 hours exposure
[3] = absence of sorbate, pH 2.8, after 4 hours exposure
[4] = absence of sorbate, pH 4.0, after 4 hours exposure

| Compound | percentage of Compound 1 remaining (10 ppm Compound 1, no photostabilizer, all pH values (2.8, 4.0, 5.0, 7.1), after 4 hours light exposure, 25° C.) | percent Compound 1 remaining [1] | percent Compound 1 remaining [2] | percent Compound 1 remaining [3] | percent Compound 1 remaining [4] | effect of sorbate on photostability | rate of degradation, trend with pH | percentage of Compound 2 remaining (5 ppm Compound 2, no photostabilizer, all pH values (2.8, 4.0, 5.0, 7.1), after 4 hours light exposure, 25° C.) | percent Compound 2 remaining [1] | percent Compound 2 remaining (250 ppm potassium sorbate, pH 5.0, after 4 hours exposure) | percent Compound 2 remaining [2] | percent Compound 2 remaining [3] | percent Compound 2 remaining [4] |
| --- | --- | --- | --- | --- | --- | --- | --- | --- | --- | --- | --- | --- | --- |
| CCCNC(=O)C(C)(C)COc1cccc2c1C(N)=NS(=O)(=O)N2 [Compound 1, 3-(4-Amino-2,2-dioxide-1H-benzo[c][1,2,6]thiadiazin-5-yloxy)-2′,2′-dimethyl-N-propylpropanamide] | less than 20% | about 47% | no compound remained | about 14% | about 10% | remarkably improved stability to photo-degradation; also recorded: significantly enhances the photostability | decreases with decreasing pH |  |  |  |  |  |  |
| CC(C)CC(=O)N1CCC[C@H](COc2cccc3c2C(N)=NS(=O)(=O)N3)C1 [Compound 2, (S)-1-(3-(((4-amino-2,2-dioxido-1H-benzo[c][1,2,6]thiadiazin-5-yl)oxy)methyl)piperidin-1-yl)-3-methylbutan-1-one] |  |  |  |  |  | remarkably improved stability to photo-degradation; also recorded: significantly enhances the photostability | decreases with decreasing pH | less than 20% | about 42% | about 15% | no compound remained | about 15% | about 5% |
